Laboratory results published in patent publication US20250375444A1, “METHOD OF TREATING ALZHEIMER’S DISEASE” (AmyriAD Pharma, Inc., priority 2021, published 2025).
Entries after “also recorded” stand apart in the source; their conditions may differ. Read-outs that look alike come from different tables or passages of the source.

Key:
[1] = system: AD subjects; assay: 12-week open-label multicenter safety extension study (Study 401) of AD101
Method: (§1) Subjects were titrated as follows: all subjects receive 60 mg once daily for the first month, 120 mg once daily for the second month and 180 mg once daily for the third month. Dose increases were dependent on the subject's tolerability of the previous dose.

[2] = system: AD subjects; assay: Safety extension study: subjects started on memantine hydrochloride; format: in vivo, human; conditions: for Adverse Events during Memantine Co-administration: 401: 180 mg AD101
Method: as §1

[3] = system: nicotine-stimulated release of ACh
[4] = system: extracellular ACh and dopamine concentrations
[5] = system: subjects having probable AD; conditions: cited from earlier work
[6] = system: acetylcholine (ACh) levels; conditions: rodent brains; cited from earlier work
[7] = system: long-term potentiation (LTP); conditions: cited from earlier work
[8] = system: protein kinase C; conditions: cited from earlier work
[9] = system: Ca^2+/calmodulin-dependent protein kinase II (CaMK II); conditions: cited from earlier work
[10] = system: Aβ-like deposits; conditions: in vivo; cited from earlier work
[11] = system: amyloid precursor protein; conditions: cited from earlier work
[12] = system: pro-ADAM10 and/or BACE protein; conditions: cited from earlier work
[13] = system: ubiquitin-proteasome system pathway; conditions: cited from earlier work
[14] = Total, unique subjects (N = 293)
[15] = Total, unique subjects (N = 293), denominator 293
[16] = all doses, safety population 293 subjects

## O=C1N=C2C=CC=CN2C12Cc1ccccc1C2 [AD101, 1′,3′-dihydro-2H-spiro[imidazo[1,2α]pyridine-3,2′-inden]-2-one]
[1]; 60 mg QD (N = 293)
  Discontinued Early: 16 n
  Discontinued Early: Adverse Event: 8 n
[1]; 60 mg QD (N = 293), denominator 293
  Discontinued Early: Adverse Event: (2.7) %
[1]; 120 mg QD (N = 276)
  Discontinued Early: 14 n
  Discontinued Early: Adverse Event: 4 n
[1]; 120 mg QD (N = 276), denominator 293
  Discontinued Early: Adverse Event: (1.4) %
[1]; 180 mg (N = 243)
  AE: Fatigue: 0 n
  AE: Somnolence: 0 n
[1]; 180 mg QD (N = 243)
  Discontinued Early: 6 n
  Discontinued Early: Adverse Event: 5 n
[1]; 180 mg QD (N = 243), denominator 293
  Discontinued Early: Adverse Event: (1.7) %
[1]; 180 mg QD vs 60 mg QD and 120 mg QD
  Safety of 180 mg QD versus lower doses: at least as safe as
[1]; 3-month open-label extension, 60 to 180 mg QD
  New safety or tolerability issues: No new safety or tolerability issues were identified
[1]; 60, 120, 180 mg
  Pattern of nature or frequency of specific AE related to dose: There does not appear to be any pattern related to AD101 dose
[1]; SAE #00036: syncope, person on 180 mg
  Relationship of SAEs to study drug (investigator): unrelated to study drug with the exception of SAE #00036
[1]; [14]
  Discontinued Early: 36 n
  Discontinued Early: Adverse Event: 17 n
  Subjects with any AE: 51.2%
[1]; [15]
  Discontinued Early: (12.3) %
  Discontinued Early: Adverse Event: (5.8) %
[1]; [16]
  Serious Adverse Events (SAEs), number of events: 17
  Subjects with Serious Adverse Events: 17 subjects
[1]; dose at time of event 60 mg
  SAE Event (individual subject): Asthma; also recorded: Chest Pain; also recorded: Fractured Wrist; also recorded: Seizure; also recorded: Syncope (vasovagal); also recorded: Vestibular neuronitis; also recorded: GI bleed 2°to
[1]; dose at time of event 120 mg
  SAE Event (individual subject): Lightheaded; also recorded: Fractured right; also recorded: Fx Left
[1]; dose at time of event 180 mg
  SAE Event (individual subject): Syncope; also recorded: Fractured; also recorded: Chest Pain; also recorded: Pneumonia/Pulmonary
[1]; dose at time of event N/A (10 days after completing 401)
  SAE Event (individual subject): Multiple CVAs
[1]; multiple cerebral vascular accidents, deemed unrelated, 10 days post-study after 60, 120 and 180 mg for 4 weeks each
  Death: 1
[1]; on 60 mg AD101
  SAEs by dose at time of event: 7
[1]; on 120 mg AD101
  SAEs by dose at time of event: 5
[1]; on 180 mg AD101
  SAEs by dose at time of event: 4
[2]; 5 subjects taking memantine hydrochloride, AD101 up to 180 mg
  Laboratory or vitals sign abnormalities: no clinically significant laboratory or vitals sign abnormalities were observed
[2]; Subject 03-2003, memantine 5 mg BID ongoing
  Adverse Events during Memantine Co-administration: No new AEs.
[2]; Subject 14-2108, memantine titrated 5 mg QD to 10 mg BID over 4 weeks
  Adverse Events during Memantine Co-administration: No new AEs.
[2]; Subject 14-2178, memantine titrated 5 mg QD to 10 mg BID over 4 weeks
  Adverse Events during Memantine Co-administration: Sinus headache ×1 day,; also recorded: Dizzy/lightheaded over 18; also recorded: Vomiting ×1 day, occurred 2
[2]; Subject 18-2018, memantine 10 mg QD
  Adverse Events during Memantine Co-administration: Decreased appetite ×9 days; also recorded: UTI ×7 days began 30 days; also recorded: Confusion ×8 days, began 38; also recorded: Anxiety, ongoing at; also recorded: URI ×14 days began 30 days
[2]; Subject 18-2122, memantine 10 mg QD
  Adverse Events during Memantine Co-administration: No new AEs.
[3]
  Nicotine-stimulated release of ACh: potentiates
[4]; cerebral cortex
  Extracellular ACh concentrations: increases
[4]; hippocampus
  Extracellular ACh concentrations: increases
  Extracellular dopamine concentrations: increases
[5]; 10, 60 and 120 mg per day analyzed separately
  Dose response in primary outcome measures: no discernable dose response
[5]; up to 120 mg QD, 12 weeks, with 10 mg donepezil hydrochloride QD
  AD101-related safety concerns: No significant AD101-related safety concerns were identified
[6]
  Acetylcholine (ACh) levels: increase
[7]
  Long-term potentiation (LTP): enhancement
[8]
  Activity of protein kinase C: increased activity
[9]
  Activity of CaMK II: increased activity
[10]
  Accumulation of Aβ-like deposits: decreases accumulation
[11]
  Cleavage of amyloid precursor protein: induce cleavage
[12]
  Level of pro-ADAM10 and/or BACE protein: decrease the level
[13]
  Activity of the ubiquitin-proteasome system pathway: enhance the activity
